Source: ChEMBL document CHEMBL1159023, “Fistularin 3 and 11-ketofistularin 3. Feline leukemia virus active bromotyrosine metabolites from the marine sponge Aplysina archeri” (J Nat Prod, 1992)

How the values were obtained:
[1] = tested on: Feline leukemia virus; assay: Antiviral activity against Feline leukemia virus infected in cat CRFK cells assessed as inhibition of viral replication after 7 days by ELISA; type: functional; details: 168 h, read-out: ED50 (the source's name)
[2] = Ratio of ID50 for cat CRFK cells to ED50 for Feline leukemia virus
[3] = Cytotoxicity against cat CRFK cells assessed as reduction in cell viability after 5 days by MTT assay; type: cell-based, Felis catus; details: read-out: ID50

Row | Structure (SMILES) | EC50 [1] | Ratio [2] | CC50 at 120 h [3]
1 | COC1=C(Br)[C@@H](O)[C@]2(C=C1Br)CC(C(=O)NCC(O)c1cc(Br)c(OCC(O)CNC(=O)C3=NO[C@]4(C=C(Br)C(OC)=C(Br)[C@@H]4O)C3)c(Br)c1)=NO2 (some centres not stated) [FISTULARIN 3] | 22 µM | >20 | > 449 µM
2 | Cc1cn([C@H]2C[C@H](N=[N+]=[N-])[C@@H](CO)O2)c(=O)[nH]c1=O [ZIDOVUDINE] | 0.1 µM | 15170 | 1520 µM
3 | COC1=C(Br)[C@@H](O)[C@]2(C=C1Br)CC(C(=O)NCC(O)c1cc(Br)c(OCC(=O)CNC(=O)C3=NO[C@]4(C=C(Br)C(OC)=C(Br)[C@@H]4O)C3)c(Br)c1)=NO2 (some centres not stated) | 42 µM | >11 | > 449 µM
4 | Nc1ccn([C@H]2CC[C@@H](CO)O2)c(=O)n1 [ZALCITABINE] | 15 µM | 133 | 1990 µM
